Patent US7998988B2, “Biphenyl compounds useful in the treatment or prevention of cardiovascular disorders” (Bayer Schering Pharma Aktiengellschaft, priority 2005, dated 2011)

Tests used:
saphenous artery rings = test: Vasorelaxant effect in vitro (phenylephrine-contracted artery rings); type: cell-based; details: rabbit saphenous artery rings, contraction induced by phenylephrine
Experimental: Rabbits are anesthetized and sacrificed by intravenous injection of thiopental sodium (about 50 mg/kg) and exsanguinated. The saphenous artery is removed and divided into rings 3 mm wide. The rings are mounted singly on in each case a pair of triangular hooks open at the end and made of 0.3 mm-thick special wire (Remanium®). Each ring is placed under an initial tension in 5 ml organ baths with Krebs-Henseleit solution which is at 37° C., is gassed with 95% 02/5% CO2 and has the following composition: NaCl 119 mM; KCl 4.8 mM; CaCl2×2H2O 1 mM; MgSO4×7 H2O 1.4 mM; KH2PO4 1.2 mM; NaHCO3 25 mM; glucose 10 mM; bovine serum albumin 0.001%. The force of contraction is detected with Statham UC2 cells, amplified and digitized via A/D converters (DAS-1802 HC, Keithley Instruments, Munich) and recorded in parallel on chart recorders. Contractions are induced by addition of phenylephrine.
After several (generally 4) control cycles, the substance to be investigated is added in each further run in increasing dosage, and the height of the contraction achieved under the influence of the test substance is compared with the height of the contraction reached in the last preceding run. The concentration necessary to reduce the contraction reached in the preceding control by 50% is calculated from this (IC50). The standard application volume is 5 μl. The proportion of DMSO in the bath solution corresponds to 0.1%.

[1] = molecular target: T1, heme-containing recombinant soluble guanylate cyclase (sGC) (Rattus norvegicus, UniProt P20595); test: Stimulation of recombinant soluble guanylate cyclase (sGC) in vitro, heme-containing; type: biochemical
T1 construct: made in house
T1 sequence (P20595 1-619): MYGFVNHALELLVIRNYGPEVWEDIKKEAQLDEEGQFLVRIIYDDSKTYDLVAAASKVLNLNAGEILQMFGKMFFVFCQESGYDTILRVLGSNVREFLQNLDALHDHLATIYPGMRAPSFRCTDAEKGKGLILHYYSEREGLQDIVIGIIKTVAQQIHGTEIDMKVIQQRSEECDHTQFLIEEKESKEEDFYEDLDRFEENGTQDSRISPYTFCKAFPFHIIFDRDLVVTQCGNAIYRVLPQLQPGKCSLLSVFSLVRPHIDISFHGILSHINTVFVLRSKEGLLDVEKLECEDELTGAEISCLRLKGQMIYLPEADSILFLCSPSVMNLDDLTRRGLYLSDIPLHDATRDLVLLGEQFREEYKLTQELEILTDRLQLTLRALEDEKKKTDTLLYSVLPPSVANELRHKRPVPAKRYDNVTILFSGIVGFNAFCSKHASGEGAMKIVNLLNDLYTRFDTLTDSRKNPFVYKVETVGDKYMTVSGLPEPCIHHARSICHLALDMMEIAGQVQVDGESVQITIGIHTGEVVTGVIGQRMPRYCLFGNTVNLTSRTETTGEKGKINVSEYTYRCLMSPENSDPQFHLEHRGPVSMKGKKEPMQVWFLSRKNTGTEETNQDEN
T1 sequence (P19686 1-690 partner): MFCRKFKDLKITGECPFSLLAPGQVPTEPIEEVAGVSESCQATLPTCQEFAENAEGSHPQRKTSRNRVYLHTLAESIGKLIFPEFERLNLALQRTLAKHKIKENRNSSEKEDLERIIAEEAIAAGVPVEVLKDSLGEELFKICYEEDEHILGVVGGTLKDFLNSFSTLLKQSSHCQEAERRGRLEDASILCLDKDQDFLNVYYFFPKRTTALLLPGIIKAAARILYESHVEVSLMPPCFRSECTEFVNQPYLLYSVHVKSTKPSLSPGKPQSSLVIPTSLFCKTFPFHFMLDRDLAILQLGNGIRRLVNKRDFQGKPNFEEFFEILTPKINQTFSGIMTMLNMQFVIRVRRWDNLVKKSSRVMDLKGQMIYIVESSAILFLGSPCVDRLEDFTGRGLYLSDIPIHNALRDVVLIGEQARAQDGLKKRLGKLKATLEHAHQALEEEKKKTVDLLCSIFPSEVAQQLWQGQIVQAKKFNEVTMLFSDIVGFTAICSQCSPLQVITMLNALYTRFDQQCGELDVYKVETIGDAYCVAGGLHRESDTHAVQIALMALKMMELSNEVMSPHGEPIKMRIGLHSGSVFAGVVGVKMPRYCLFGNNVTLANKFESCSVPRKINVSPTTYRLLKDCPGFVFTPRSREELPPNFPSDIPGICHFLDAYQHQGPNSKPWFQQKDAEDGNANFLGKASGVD
Description: Hoenicka, E. M. Becker, H. Apeler, T. Sirichoke, H. Schroeder, R. Gerzer and J.-P. Stasch, “Purified soluble guanylyl cyclase expressed in a baculovirus/Sf9 system: Stimulation by YC-1, nitric oxide, and carbon oxide”, J. Mol. Med. 77 (1999), 14-23. The heme-free guanylate cyclase is obtained by adding Tween 20 to the sample buffer (0.5% in the final concentration).
(§1) The activation of sGC by a test substance is reported as n-fold stimulation of the basal activity.

[2] = molecular target: T2, heme-free recombinant soluble guanylate cyclase (sGC) (Rattus norvegicus, UniProt P20595); test: Stimulation of recombinant soluble guanylate cyclase (sGC) in vitro, heme-free; type: biochemical; details: heme-free sGC (Tween 20)
T2 construct: made in house
T2 sequence (P20595 1-619): T1 sequence (P20595 1-619)
T2 sequence (P19686 1-690 partner): T1 sequence (P19686 1-690 partner)
Experimental: Investigations on the stimulation of recombinant soluble guanylate cyclase (sGC) by the compounds according to the invention with and without sodium nitroprusside, and with and without the heme-dependent sGC inhibitor 1H-1,2,4-oxadiazole-(4,3a)-quinoxalin-1-one (ODQ) are carried out by the method described in detail in the following reference: M. Hoenicka, E. M. Becker, H. Apeler, T. Sirichoke, H. Schroeder, R. Gerzer and J.-P. Stasch, “Purified soluble guanylyl cyclase expressed in a baculovirus/Sf9 system: Stimulation by YC-1, nitric oxide, and […]”, J. Mol. Med. 77 (1999), 14-23. The heme-free guanylate cyclase is obtained by adding Tween 20 to the sample buffer (0.5% in the final concentration).
as §1

IC50 (saphenous artery rings): 146 nM | Stimulation (n-fold) of sGC, +0.01 μM DEA/NO ([1]; 0.001 μM test substance): 10.6 n-fold | Stimulation (n-fold) of sGC, +0.01 μM DEA/NO ([1]; 0.01 μM test substance): 13.0 n-fold | Stimulation (n-fold) of sGC, +0.01 μM DEA/NO ([1]; 0.1 μM test substance): 25.5 n-fold | Stimulation (n-fold) of sGC, +0.01 μM DEA/NO ([1]; 1 μM test substance): 35.4 n-fold | Stimulation (n-fold) of sGC, +0.01 μM DEA/NO ([1]; 10 μM test substance): 42.5 n-fold | Stimulation (n-fold) of sGC, +0.1 μM DEA/NO ([1]; 0.001 μM test substance): 50.3 n-fold | Stimulation (n-fold) of sGC, +0.1 μM DEA/NO ([1]; 0.01 μM test substance): 53.4 n-fold | Stimulation (n-fold) of sGC, +0.1 μM DEA/NO ([1]; 0.1 μM test substance): 66.5 n-fold | Stimulation (n-fold) of sGC, +0.1 μM DEA/NO ([1]; 1 μM test substance): 75.1 n-fold | Stimulation (n-fold) of sGC, +0.1 μM DEA/NO ([1]; 10 μM test substance): 81.5 n-fold | Stimulation (n-fold) of sGC, +10 μM ODQ ([1]; 0.01 μM test substance): 12.7 n-fold | Stimulation (n-fold) of sGC, +10 μM ODQ ([1]; 0.1 μM test substance): 66.3 n-fold | Stimulation (n-fold) of sGC, +10 μM ODQ ([1]; 1 μM test substance): 107.4 n-fold | Stimulation (n-fold) of sGC, +10 μM ODQ ([1]; 10 μM test substance): 105.5 n-fold | Stimulation (n-fold) of sGC, Basal ([1]; 0.001 μM test substance): 1.4 n-fold | Stimulation (n-fold) of sGC, Basal ([1]; 0.01 μM test substance): 3.1 n-fold | Stimulation (n-fold) of sGC, Basal ([1]; 0.1 μM test substance): 15.5 n-fold | Stimulation (n-fold) of sGC, Basal ([1]; 1 μM test substance): 25.4 n-fold | Stimulation (n-fold) of sGC, Basal ([1]; 10 μM test substance): 33.0 n-fold | Synergism with the NO donor DEA/NO on sGC stimulation ([1]; combination with DEA/NO): no synergistic effect | Stimulation (n-fold) of heme-free sGC, Basal ([2]; 0.001 μM test substance): 3.7 n-fold | Stimulation (n-fold) of heme-free sGC, Basal ([2]; 0.01 μM test substance): 24.0 n-fold | Stimulation (n-fold) of heme-free sGC, Basal ([2]; 0.1 μM test substance): 98.1 n-fold | Stimulation (n-fold) of heme-free sGC, Basal ([2]; 1 μM test substance): 132.6 n-fold | Stimulation (n-fold) of heme-free sGC, Basal ([2]; 10 μM test substance): 137.9 n-fold
Structure (SMILES): O=C(O)c1ccc(CCC(/C=C/c2ccccc2OCc2ccc(-c3ccc(C(F)(F)F)cc3)cc2)Cc2ccc(-c3noc(=O)[nH]3)cc2)cc1 (single isomer, unassigned) [Example 55, E-4-{3-[4-(5-Oxo-4,5-dihydro-[1,2,4]oxadiazol-3-yl)benzyl]-5-[2-(4′-trifluoromethylbiphenyl-4-ylmethoxy)phenyl]pent-4-enyl}benzoic acid]
